Columns and labels:
type 2 diabetic mice = assay: Blood sugar lowering effect in high-sugar and high-fat diet-induced type 2 diabetes mouse model; type: in vivo, C57BL\6J mice
Text: A high-sugar and high-fat diet-induced type 2 diabetes mouse model was used in this experiment, and the following tests were mainly conducted: • 1) Effect of single intraperitoneal administration on basal blood glucose, glucose tolerance and insulin sensitivity in diabetic mice. • 2) Effect of single gavage administration on glucose tolerance and insulin sensitivity in diabetic mice. • 3) Effect of continuous chronic intraperitoneal administration on basal blood glucose in diabetic mice.
C57BL\6J mice were fed with a high-sugar and high-fat diet for 3 consecutive months. The test experiment was conducted after the average body weight of the mice stabilized at more than 50g and the average basal blood sugar value stabilized at more than 12mmol/L.
Blood glucose level was mainly measured by measuring tail vein blood using a blood glucose meter. For the test of basal blood glucose effect, the mice were on a normal diet. The basal blood glucose value before administration was first measured, and then a single intraperitoneal injection or a single gavage of the yohimbine derivative C19 (10 mg/kg mouse body weight) was given, and the venous blood glucose level was measured 15, 30, 60, 90, and 120 minutes after administration. The mouse glucose tolerance test was performed after the mouse has eaten for 16 hours overnight. 30 minutes after a single intraperitoneal injection or a single gavage of the yohimbine derivative C19 (10 mg/kg mouse body weight), glucose (1.5 g/kg) was injected intraperitoneally, and the venous blood glucose level was measured 15, 30, 60, 90, and 120 minutes later. Mouse insulin sensitivity was tested after the mouse has eaten for 6 hours. 30 minutes after a single intraperitoneal injection or single gavage of yohimbine derivative C19 (10 mg/kg mouse body weight), insulin (1 UI/kg) was injected intraperitoneally, and the venous blood glucose level was measured 15, 30, 60, 90, and 120 minutes later. For the effect of chronic administration on blood glucose levels, diabetic mice were intraperitoneally injected with yohimbine derivative C19 (10 mg/kg) every day for 12 consecutive days, and the basal blood glucose level of mice under free diet was measured every day before drug injection. The control group was injected with normal saline or gavage.

[1] = Tissue distribution test in mice; type: in vivo; conditions: gavage 10 mg/kg
Protocol: Mice were fasted for more than 12 h and had free access to water. Table 3 Experimental Scheme for tissue distribution of Compound C27 in mice
Mice were fasted for more than 12 h and had free access to water.
• (1) Tissue distribution test in mice: The animals in each group were anesthetized and killed 2 h after administration. The brain, pancreas, heart, liver, and kidney tissues were collected by dissection, washed with physiological saline, and stored in a -20 °C refrigerator for testing. At the same time, 0.3 mL of whole blood was collected and placed in an EDTA-K2 anticoagulant tube. The blood was separated by centrifugation at 11,000 rpm for 5 min and stored in a -20 °C refrigerator for testing.
The concentration of unchanged drug in plasma and tissues was determined.
(2) Tissue distribution test of compound C27 in mice: At corresponding time points (0.25, 2 and 8 h) after gavage administration, mice were bled to death through the abdominal aorta. Brain, heart, liver, lung, pancreas and kidney tissues were immediately collected by dissection, and part of the plasma was collected. The operation was carried out in an ice water bath.
Centrifugation conditions: 11000 rpm for 5 min to separate plasma (about 200 µL).

α2A-AR = target: T1, α2A-AR (Homo sapiens, UniProt P08913); assay: α2A-AR antagonist assay (calcium flux, Fluo-4, FlexStation II); type: cell-based; conditions: antagonistic activity against agonist UK14304 in cells stably expressing α2A-AR/Ga16
T1 construct: expressed in transfected cells; stably expressing α2A-AR/Gα16
T1 sequence (P08913 1-465): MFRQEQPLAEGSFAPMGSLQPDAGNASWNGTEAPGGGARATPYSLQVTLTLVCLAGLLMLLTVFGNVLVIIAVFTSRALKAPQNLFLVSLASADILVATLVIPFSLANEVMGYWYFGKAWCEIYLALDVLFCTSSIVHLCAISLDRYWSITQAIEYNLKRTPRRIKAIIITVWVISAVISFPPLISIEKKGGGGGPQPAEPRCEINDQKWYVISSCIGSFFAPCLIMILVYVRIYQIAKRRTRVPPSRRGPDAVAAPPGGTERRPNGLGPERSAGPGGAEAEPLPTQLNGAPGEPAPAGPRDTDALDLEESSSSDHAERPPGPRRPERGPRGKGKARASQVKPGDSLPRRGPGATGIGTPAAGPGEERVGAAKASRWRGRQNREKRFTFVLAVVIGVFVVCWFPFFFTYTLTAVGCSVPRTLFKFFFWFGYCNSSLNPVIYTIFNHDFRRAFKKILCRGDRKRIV
Text: By establishing a cell line co-transfected with the target receptor and Ga16, the receptor can be activated to cause the activation of Gα16 protein, which in turn activates phospholipase C (PLC) to produce IP3 and DAG. IP3 can bind to the IP3 receptors on the endoplasmic reticulum and mitochondria in the cell, thereby causing the release of intracellular calcium. Therefore, measuring the changes in intracellular calcium can be used as a method to detect the activation state of the target receptor. Fluo-4/AM is a calcium fluorescent probe indicator used to measure calcium ions. As a non-polar lipid-soluble compound, after entering the cell, the AM group dissociates under the action of cell lipases and releases Fluo-4; since Fluo-4 is a polar molecule that is not easy to pass through the lipid bilayer membrane, it can keep in the cell for a long time. Finally, the level of Ga protein activation can be reflected by measuring the excited fluorescence intensity.
Before the test, the test compound was dissolved in DMSO to prepare a stock solution, which was diluted with culture medium to the required concentration when used.

[2] = relative ratio of tissue distribution concentration to blood concentration

For `N#Cc1ccc(Cc2noc([C@@H]3[C@H]4C[C@H]5c6[nH]c7ccccc7c6CCN5C[C@@H]4CC[C@@H]3O)n2)cc1` [Compound C19], the “basal blood glucose level” value (type 2 diabetic mice; chronic intraperitoneal injection, 10 mg/kg once a day, 12 consecutive days (Figure 8)) was “stably maintain the basal blood sugar level of diabetic mice at a state closer to the normal level”, the glucose tolerance (type 2 diabetic mice; single gavage administration, 10 mg/kg (Figure 6)) was “improve glucose tolerance” and the insulin sensitivity (type 2 diabetic mice; single gavage administration, 10 mg/kg (Figure 7)) was “increase insulin sensitivity”. For the same molecule, the “basal blood glucose level” value (type 2 diabetic mice; single intraperitoneal injection, 10 mg/kg (Figure 3)) was “significantly reduce the high blood sugar level of diabetic mice”, the glucose tolerance (type 2 diabetic mice; single intraperitoneal injection, 10 mg/kg (Figure 4)) was “improve glucose tolerance” and the insulin sensitivity (type 2 diabetic mice; single intraperitoneal injection, 10 mg/kg (Figure 5)) was “increase insulin sensitivity”. The pancreatic distribution [1] was “good pancreatic distribution”, the “brain tissue distribution compared with yohimbine” value [1, 2] was “lower brain tissue distribution than yohimbine” and the “brain tissue distribution, times lower than that of yohimbine” value [1, 2] was “about forty times lower”. For the same molecule, the IC50 (α2A-AR) was 0.3 to 0.5 µM.

— patent EP4624470A1, “YOHIMBINE DERIVATIVE, AND PREPARATION METHOD THEREFOR AND PHARMACEUTICAL COMPOSITION AND USE THEREOF” (Shanghai Institute of Materia Medica, Chinese Academy of …, priority 2022, dated 2024)
